Source: ChEMBL document CHEMBL3046390, “Multifunctionalised benzoxazinones in the systems Oryza sativa-Echinochloa crus-galli and Triticum aestivum-Avena fatua as natural-product-based herbicide leads” (Pest Manag Sci, 2010)
The source made the active and inactive calls. No cut-off for these calls is given here.

How the values were obtained:
[1] = system: Avena fatua; assay: Herbicidal activity against Avena fatua assessed as inhibition of seed germination at 0.05 uM to 1 mM after 5 days relative to control; type: functional, organism-based
[2] = system: Echinochloa crus-galli; assay: Herbicidal activity against Echinochloa crus-galli (barnyard grass) assessed as inhibition of root length after 5 days relative to control; type: functional, organism-based; details: 120 h
[3] = system: Triticum aestivum; assay: Phytotoxicity against Triticum aestivum (wheat) assessed as inhibition of seed germination at 10 uM to 1 mM after 5 days relative to control; type: organism-based; details: in vivo, 120 h
[4] = system: Oryza sativa; assay: Phytotoxicity against Oryza sativa (rice) assessed as inhibition of seed germination at 10 uM to 1 mM after 7 days relative to control; type: organism-based; details: in vivo, 168 h
[5] = Phytotoxicity against Triticum aestivum (wheat) assessed as inhibition of root elongation at 114 uM after 5 days relative to control; type: organism-based; details: in vivo
[6] = system: Triticum aestivum; assay: Phytotoxicity against Triticum aestivum (wheat) assessed as inhibition of root elongation after 5 days relative to control; type: organism-based; details: 120 h
[7] = system: Oryza sativa; assay: Phytotoxicity against Oryza sativa (rice) assessed as inhibition of root elongation after 7 days relative to control; type: organism-based; details: 168 h
[8] = system: Echinochloa crus-galli; assay: Herbicidal activity against Echinochloa crus-galli (barnyard grass) assessed as inhibition of shoot length at 0.05 uM to 1 mM after 5 days relative to control; type: functional, organism-based
[9] = system: Echinochloa crus-galli; assay: Herbicidal activity against Echinochloa crus-galli (barnyard grass) assessed as inhibition of seed germination at 0.05 uM to 1 mM after 5 days relative to control; type: functional, organism-based
[10] = Selectivity idex, ratio of IC50 for root elongation in Oryza sativa to IC50 for root elongation in Echinochloa crus-galli
[11] = system: Avena fatua; assay: Herbicidal activity against Avena fatua assessed as inhibition of shoot length at 0.05 uM to 1 mM after 5 days relative to control; type: functional, organism-based
[12] = system: Avena fatua; assay: Herbicidal activity against Avena fatua assessed as inhibition of root length after 5 days relative to control; type: functional, organism-based; details: 120 h
[13] = system: Avena fatua; assay: Herbicidal activity against Avena fatua assessed as inhibition of root elongation at 114 uM after 5 days relative to control; type: functional; details: 120 h
[14] = Selectivity idex, ratio of IC50 for root elongation in Triticum aestivum to IC50 for root elongation in Avena fatua
[15] = system: Echinochloa crus-galli; assay: Ratio of Contanil IC50 to compound IC50 for root elongation in Echinochloa crus-galli (barnyard grass); type: functional
[16] = system: Avena fatua; assay: Herbicidal activity against Avena fatua assessed as inhibition of root elongation at 6 uM after 5 days relative to control; type: functional; details: 120 h
[17] = Phytotoxicity against Triticum aestivum (wheat) assessed as inhibition of root elongation at 6 uM after 5 days relative to control; type: organism-based; details: in vivo
[18] = system: Echinochloa crus-galli; assay: Herbicidal activity against Echinochloa crus-galli (barnyard grass) assessed as inhibition of root elongation at 52 uM after 5 days relative to control; type: functional; details: 120 h
[19] = Phytotoxicity against Oryza sativa (rice) assessed as inhibition of root elongation at 52 uM after 7 days relative to control; type: organism-based; details: in vivo

For `CCCCC(=O)ON1C(=O)COc2c(Cl)cccc21`, the inhibition [1] was “Active”, the IC50 [2] was 64 µM and the Activity [3] was “Non-toxic”. For the same compound, the Activity [4] was “Non-toxic”, the inhibition at 120 h, 114 µM [5] was 18% and the IC50 [6] was 1640 µM. The IC50 [7] was 712 µM, the inhibition [8] was “Active” and the inhibition [9] was “Active”. The Ratio IC50 [10] was 11.1, the inhibition [11] was “Active” and the IC50 [12] was 114 µM. The inhibition at 114 µM [13] was 70% and the Ratio IC50 [14] was 14.4.
For `CCCC1Oc2c(Cl)cccc2N(O)C1=O` [8-Cl-2-Pr-D-DIBOA], the inhibition [1] was “Active”, the IC50 [2] was 83 µM and the Activity [3] was “Non-toxic”. The Activity [4] was “Non-toxic”, the IC50 [6] was 393 µM and the IC50 [7] was 614 µM. For the same compound, the inhibition [8] was “Active”, the inhibition [9] was “Active” and the Ratio IC50 [10] was 7.44. For the same compound, the inhibition [11] was “Active”, the IC50 [12] was 73.2 µM and the Ratio IC50 [14] was 5.37.
For `CCC1Oc2ccc(F)cc2N(O)C1=O` [6-F-2-Et-D-DIBOA], the inhibition [1] was “Active”, the IC50 [2] was 25 µM and the Activity [3] was “Non-toxic”. For the same compound, the Activity [4] was “Non-toxic”, the IC50 [6] was 63.1 µM and the IC50 [7] was 15 µM. For the same compound, the inhibition [8] was “Active”, the inhibition [9] was “Active” and the Ratio IC50 [10] was 0.58. For the same compound, the inhibition [11] was “Active”, the IC50 [12] was 24.4 µM and the Ratio IC50 [14] was 2.59.
In the case of `CCC(=O)ON1C(=O)COc2ccc(Cl)cc21`, the inhibition [1] is reported as “Active”, the IC50 [2] is reported as 14 µM and the Activity [3] is reported as “Non-toxic”. The Activity [4] was “Non-toxic”, the IC50 [6] was 46.6 µM and the IC50 [7] was 3 µM. The inhibition [8] was “Active”, the inhibition [9] was “Active” and the Ratio IC50 [10] was 0.2. For the same compound, the inhibition [11] was “Active”, the IC50 [12] was 19.3 µM and the Ratio IC50 [14] was 2.42.
For `CCC(=O)ON1C(=O)COc2ccc(F)cc21` [6F-4Pr-D-DIBOA], the inhibition [1] was “Active”, the IC50 [2] was 9 µM and the “Ratio IC50” value [15] was 12. For the same compound, the Activity [3] was “Non-toxic”, the Activity [4] was “Non-toxic” and the IC50 [6] was 81.9 µM. For the same compound, the IC50 [7] was 3 µM, the inhibition [8] was “Active” and the inhibition [9] was “Active”. For the same compound, the Ratio IC50 [10] was 0.36, the inhibition at 6 µM [16] was 70% and the inhibition [11] was “Active”. It also gave an IC50 [12] of 6.22 µM, an inhibition at 120 h, 6 µM [17] of 25% and a Ratio IC50 [14] of 13.2.
For `O=C1C(c2ccccc2)Oc2c(Cl)cccc2N1O` [8-Cl-2-Ph-D-DIBOA], the inhibition [1] was “Active”, the IC50 [2] was 109 µM and the Activity [3] was “Non-toxic”. The Activity [4] was “Non-toxic”, the IC50 [6] was 263 µM and the IC50 [7] was 384 µM. For the same compound, the inhibition [8] was “Active”, the inhibition [9] was “Active” and the Ratio IC50 [10] was 3.51. The inhibition [11] was “Active”, the IC50 [12] was 150 µM and the Ratio IC50 [14] was 1.75.
In the case of `CCCCC(=O)ON1C(=O)COc2ccc(F)cc21` [6-F-4-Val-D-DIBOA], the inhibition [1] is reported as “Active”, the IC50 [2] is reported as 8 µM and the “Ratio IC50” value [15] is reported as 12. The Activity [3] was “Non-toxic”, the Activity [4] was “Non-toxic” and the IC50 [6] was 58.2 µM. For the same compound, the IC50 [7] was 6 µM, the inhibition [8] was “Active” and the inhibition [9] was “Active”. For the same compound, the Ratio IC50 [10] was 0.78, the inhibition [11] was “Active” and the IC50 [12] was 6.53 µM. It also gave a Ratio IC50 [14] of 8.92.
With `O=C1C(c2ccccc2)Oc2ccc(Cl)cc2N1O` [6-Cl-2-Ph-D-DIBOA] the inhibition [1] was “Active”, the IC50 [2] was 94 µM and the Activity [3] was “Non-toxic”. The Activity [4] was “Non-toxic”, the IC50 [6] was 690 µM and the IC50 [7] was 992 µM. The inhibition [8] was “Active”, the inhibition [9] was “Active” and the Ratio IC50 [10] was 10.5. The inhibition [11] was “Active”, the IC50 [12] was 197 µM and the Ratio IC50 [14] was 3.51.
In the case of `CCC1Oc2ccc(Cl)cc2N(O)C1=O` [6-Cl-2-Et-D-DIBOA], the inhibition [1] is reported as “Active”, the IC50 [2] is reported as 840 µM and the Activity [3] is reported as “Non-toxic”. The Activity [4] was “Non-toxic”, the IC50 [6] was 130 µM and the IC50 [7] was 56 µM. For the same compound, the inhibition [8] was “Active”, the inhibition [9] was “Active” and the Ratio IC50 [10] was 0.07. For the same compound, the inhibition [11] was “Active”, the IC50 [12] was 466 µM and the Ratio IC50 [14] was 0.28.
In the case of `CCCC1Oc2ccc(Cl)cc2N(O)C1=O` [6-Cl-2-Pr-D-DIBOA], the inhibition [1] is reported as “Active”, the IC50 [2] is reported as 131 µM and the Activity [3] is reported as “Non-toxic”. The Activity [4] was “Non-toxic”, the IC50 [6] was 470 µM and the IC50 [7] was 156 µM. For the same compound, the inhibition [8] was “Active”, the inhibition [9] was “Active” and the Ratio IC50 [10] was 1.19. For the same compound, the inhibition [11] was “Active”, the IC50 [12] was 123 µM and the Ratio IC50 [14] was 3.82.
In the case of `CCC1Oc2c(Cl)cccc2N(O)C1=O` [8-Cl-2-Et-D-DIBOA], the inhibition [1] is reported as “Active”, the IC50 [2] is reported as 145 µM and the Activity [3] is reported as “Non-toxic”. For the same compound, the Activity [4] was “Non-toxic”, the IC50 [6] was 345 µM and the IC50 [7] was 305 µM. For the same compound, the inhibition [8] was “Active”, the inhibition [9] was “Active” and the Ratio IC50 [10] was 2.11. For the same compound, the inhibition [11] was “Active”, the IC50 [12] was 154 µM and the Ratio IC50 [14] was 2.25.
With `O=C1C(c2ccccc2)Oc2ccc(F)cc2N1O` [6-F-2-Ph-D-DIBOA] the inhibition [1] was “Active”, the IC50 [2] was 211 µM and the Activity [3] was “Non-toxic”. For the same compound, the Activity [4] was “Non-toxic”, the IC50 [6] was 641 µM and the IC50 [7] was 1240 µM. For the same compound, the inhibition [8] was “Active”, the inhibition [9] was “Active” and the Ratio IC50 [10] was 5.86. For the same compound, the inhibition [11] was “Active”, the IC50 [12] was 176 µM and the Ratio IC50 [14] was 3.65.
In the case of `CCC(=O)ON1C(=O)COc2c(Cl)cccc21` [8-Cl-4-Pr-D-DIBOA], the inhibition [1] is reported as “Active”, the IC50 [2] is reported as 52 µM and the Activity [3] is reported as “Non-toxic”. The Activity [4] was “Non-toxic”, the IC50 [6] was 1300 µM and the IC50 [7] was 859 µM. For the same compound, the inhibition [8] was “Active”, the inhibition at 52 µM [18] was 70% and the inhibition [9] was “Active”. The Ratio IC50 [10] was 16.6, the inhibition [11] was “Active” and the IC50 [12] was 321 µM. It also gave an inhibition at 168 h, 52 µM [19] of 8% and a Ratio IC50 [14] of 4.06.
For `CCCCC(=O)ON1C(=O)COc2ccc(Cl)cc21` [6-Cl-4-Val-D-DIBOA], the inhibition [1] was “Active”, the IC50 [2] was 14 µM and the Activity [3] was “Non-toxic”. For the same compound, the Activity [4] was “Non-toxic”, the IC50 [6] was 26.6 µM and the IC50 [7] was 2 µM. For the same compound, the inhibition [8] was “Active”, the inhibition [9] was “Active” and the Ratio IC50 [10] was 0.16. The inhibition [11] was “Active”, the IC50 [12] was 3.54 µM and the Ratio IC50 [14] was 7.52.
In the case of `CCC(=O)Nc1ccc(Cl)c(Cl)c1` [PROPANIL], the Activity [3] is reported as “Non-toxic”, the Activity [4] is reported as “Non-toxic” and the Ratio IC50 [10] is reported as 1.87.
With `CCCC1Oc2ccc(F)cc2N(O)C1=O` (stereo unspecified) the inhibition [1] was “Active”, the IC50 [2] was 183 µM and the Activity [3] was “Non-toxic”. The Activity [4] was “Non-toxic”, the IC50 [6] was 766 µM and the IC50 [7] was 337 µM. The inhibition [8] was “Active”, the inhibition [9] was “Active” and the Ratio IC50 [10] was 1.85. For the same compound, the inhibition [11] was “Active”, the IC50 [12] was 160 µM and the Ratio IC50 [14] was 4.78.
